Our source for the EC50 values is patent publication US9840512B2, “Antidiabetic bicyclic compounds” (Merck Sharp & Dohme Corp., priority 2013, dated 2017).

In experiment [1] the target is T1, human GPR40 (Homo sapiens, UniProt O14842). Description: Inositol Phosphate Turnover (IP1) Assay 1. The settings on record: Human IP1 Assay 1, EC50, nM, HEK cells stably expressing human GPR40.
The target in experiment [2] is T1, human GPR40. Description: FLIPR assay (agonist-induced calcium mobilization). The settings on record: Human FLIPR EC50, nM or % activation (EC50 values), GPR40/CHO NFAT BLA cells.

T1 sequence (O14842 whole entry): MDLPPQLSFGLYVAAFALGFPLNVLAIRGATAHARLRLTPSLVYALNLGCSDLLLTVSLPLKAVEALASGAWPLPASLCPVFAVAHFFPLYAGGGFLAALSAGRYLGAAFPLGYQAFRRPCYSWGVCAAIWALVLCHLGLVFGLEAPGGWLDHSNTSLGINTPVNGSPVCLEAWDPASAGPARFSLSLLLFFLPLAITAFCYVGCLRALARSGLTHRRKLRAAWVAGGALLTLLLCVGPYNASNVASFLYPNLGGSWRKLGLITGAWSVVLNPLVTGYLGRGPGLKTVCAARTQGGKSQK

On to `CC#C[C@@H](CC(=O)O)c1ccc2c(c1)CCC(c1cc(C3=CCCC3(C)C)ccc1F)O2` (mixture of isomers) [Example 33], for which the EC50 (usually the concentration at which the effect is half-maximal) worked out at 1300 nM on human GPR40 [1] and 114 nM at human GPR40 [2].
As for `CC(C)=CC(CC(=O)O)c1ccc2c(c1)CCC(c1cccc(-c3c(C)cccc3C)c1)O2` (mixture of isomers) [Example 44], the figures for the EC50 on human GPR40 [1] and on human GPR40 [2] were 6060 nM and 69 nM, respectively.
For `CC#C[C@@H](CC(=O)O)c1ccc2c(c1)CCC(c1ccc(OCc3ccccc3)c(-c3c(C)cccc3C)c1)O2` (mixture of isomers) [Example 52], in that order: 248 nM and 17 nM.
For `CC#CC(CC(=O)O)c1ccc2c(c1)CCC(c1nc(-c3c(C)cccc3C)ccc1F)O2` (mixture of isomers) [Example 16], in that order: 710 nM and 76 nM.
For `CC#C[C@@H](CC(=O)O)c1ccc2c(c1)CCC(c1cccc(-c3cccc4c3c(C(F)(F)F)nn4C)c1)O2` (single isomer, unassigned) [Example 42], in that order: 1220 nM and 74 nM.
Regarding `CC#C[C@@H](CC(=O)O)c1ccc2c(c1)CCC(c1ccc(OCc3ccccc3)cc1)O2` (mixture of isomers) [Example 50], the values for the EC50 on human GPR40 [1] and on human GPR40 [2] were 877 nM and 9 nM, respectively.
For `CC#C[C@@H](CC(=O)O)c1ccc2c(c1)CCC(c1ccc(-c3cc(OC)ccc3F)cc1)O2` (mixture of isomers) [Example 51], in that order: 1200 nM and 105 nM.
Take `CC#C[C@@H](CC(=O)O)c1ccc2c(c1)CCC(c1cccc(-c3cccc4c3c(C(F)(F)F)nn4C)c1)O2` (single isomer, unassigned) [Example 41]: the values for the EC50 at human GPR40 [1] and on human GPR40 [2] were 175 nM and 64 nM, respectively.
For `CC#C[C@@H](CC(=O)O)c1ccc2c(c1)CCC(c1cc(-c3c(C)cccc3C)ccc1F)O2` (single isomer, unassigned) [Example 21], in that order: 83 nM and 26 nM.
For `CC#CC(CC(=O)O)c1ccc2c(c1)CCC(c1cccc(-c3ccccc3C(F)(F)F)c1)O2` (mixture of isomers) [Example 27], in that order: 726 nM and 52 nM.
For `COc1ccc(F)c(-c2ccc(C3CCc4ccc(CCC(=O)O)cc4O3)cc2C2=CCCC2(C)C)c1` (racemic) [Example 48], in that order: 1020 nM and 12 nM.
In the case of `Cc1cccc(C)c1-c1ccc(F)c(C2CCc3cc(CCC(=O)O)ccc3O2)n1` (racemic) [Example 3], the EC50 is 3630 nM on human GPR40 [1] and 292 nM at human GPR40 [2].
For `CC#CC(CC(=O)O)c1ccc2c(c1)CCC(c1cccc(Oc3ccc(C#N)cc3)c1)O2` (mixture of isomers) [Example 23], in that order: 116 nM and 40 nM.
Take `CC#CC(CC(=O)O)c1ccc2c(c1)CCC(c1cccc(-c3c(C)noc3C)c1)O2` (mixture of isomers) [Example 22]: the values for the EC50 on human GPR40 [1] and at human GPR40 [2] were 638 nM and 151 nM, respectively.
For `Cc1ccccc1-c1ccc(F)c(C2CCc3cc4c(cc3O2)OC[C@H]4CC(=O)O)c1` (some centres unmarked) [Example 56], in that order: 1910 nM and 117 nM.
As for `CC#CC(CC(=O)O)c1ccc2c(c1)CCC(c1nc(-c3ccc(OC)nc3C)ccc1F)O2` (mixture of isomers) [Example 19], the results for the EC50 on human GPR40 [1] and at human GPR40 [2] were 4500 nM and 106 nM, respectively.
For `CC#C[C@@H](CC(=O)O)c1ccc2c(c1)CCC(c1cc(-c3ccc(OC)nc3C)ccc1F)O2` (single isomer, unassigned) [Example 38], in that order: 1690 nM and 83 nM.
For `CC#C[C@@H](CC(=O)O)c1ccc2c(c1)CCC(c1cc(-c3cccnc3C(F)(F)F)ccc1F)O2` (mixture of isomers) [Example 31], in that order: 60 nM and 95 nM.
In the case of `Cc1ccccc1-c1cc(F)c(C2CCc3cc4c(cc3O2)OC[C@H]4CC(=O)O)cc1-c1ccccc1C` (mixture of isomers) [Example 59], the results for the EC50 at human GPR40 [1] and on human GPR40 [2] were 2520 nM and 51 nM, respectively.
For `CC#C[C@@H](CC(=O)O)c1ccc2c(c1)CCC(c1cccc(-c3cccc4c3c(C(F)(F)F)nn4C)c1)O2` (mixture of isomers) [Example 32], in that order: 149 nM and 57 nM.
For `CC#C[C@@H](CC(=O)O)c1ccc2c(c1)CCC(c1cc(-c3cccnc3C(F)(F)F)ccc1F)O2` (single isomer, unassigned) [Example 35], in that order: 31 nM and 37 nM.
As to `CC#C[C@@H](CC(=O)O)c1ccc2c(c1)CCC(c1cc(-c3ccc(OC)nc3C)ccc1F)O2` (single isomer, unassigned) [Example 37], the EC50 on human GPR40 [1] came out at 47 nM; at human GPR40 [2] it was 38 nM.
For `CC#CC(CC(=O)O)c1ccc2c(c1)CCC(c1cc(-c3ccc(OC)nc3C)ccc1F)O2` (mixture of isomers) [Example 24], in that order: 58 nM and 57 nM.
For `Cc1cc(OCCS(C)(=O)=O)cc(C)c1-c1cccc(C2CCc3cc(CCC(=O)O)ccc3O2)c1` (racemic) [Example 6], in that order: 1700 nM and 185 nM.
For the compound `Cc1cccc(C)c1-c1cccc(C2CCc3cc(CCC(=O)O)ccc3O2)c1` (single isomer, unassigned) [Example 5], the EC50 on human GPR40 [1] was determined as 1670 nM; on human GPR40 [2], 85 nM.
For `Cc1cccc(C)c1-c1cccc(C2CCc3cc(CCC(=O)O)ccc3O2)c1` (centres unmarked) [Example 1, 3-(2-(2′,6′-dimethyl-[1,1′-biphenyl]-3-yl)chroman-6-yl)propanoic acid], in that order: 1210 nM and 102 nM.
For `Cc1cccc(C)c1-c1cccc(C2CCc3cc(CCC(=O)O)ccc3O2)c1` (single isomer, unassigned) [Example 4], in that order: 544 nM and 38 nM.
For `CC#CC(CC(=O)O)c1ccc2c(c1)CCC(c1cc(Br)ccc1F)O2` (mixture of isomers) [Example 28], in that order: 536 nM and 115 nM.
